From PMC12266748, “A Xanthine Derivative With Novel Heat Shock Protein 90‐Alpha Inhibitory and Senolytic Properties” (Aging Cell, 2025)
Like-named read-outs stand apart in the source and are kept apart here.

Experiments:
MCF7 cells [1] = assay: Dose-response curves on proliferating and Tamoxifen-induced senescent MCF7 (Incucyte); type: cell-based, Homo sapiens
Source text: (§1) IMR90 and WI38 lung fibroblasts were purchased from ECACC‐Merck. Human bone marrow (BM)‐derived mesenchymal stromal cells (MSCs) were purchased from Lonza. Human umbilical vein endothelial cells (HUVECs) are primary cells obtained from a pool of donors purchased from Clonetics (Lonza). Murine ear fibroblasts (MearFs) were obtained from C57BL/6J mice maintained in the INRCA “Specific Pathogen Free” (SPF) animal facility. MCF7 breast cancer cells were purchased from ATCC. For dose–response curves, IMR90 and WI38 were induced to senescence through replicative passages; MSCs, HUVECs, and MearFs senescence was induced with Doxorubicin; MCF7 senescence was induced with 4‐Hydroxytamoxifen (Lee et al. [2014]). The EC50 was calculated using GraphPad Prism 10 software. All treatment specifications are reported in the extended section.
(§2) MCF7 cell line (ATCC; HTB-22, Homo sapiens, breast cancer) was purchased from ATCC; cells were grown in MEM medium (Corning, New York, USA, #15-010-CVR) supplemented with 10% FBS (Gibco, Invitrogen, Carlsbad, CA, USA, #10270106), 1% glutamine (Corning #25005-CI), 1% penicillin and streptomycin (Corning #30002-CI). Cells were incubated at 37 °C with 5% CO2. Senescent status induction: MCF7 were plated 24 h before the treatment with 4-Hydroxytamoxifen (TAM) 10 μM to induce the senescence described by (Lee et al. 2014). Control cultures were treated with equal volumes of 75% ethanol as the vehicle. The treatment with TAM lasts 96 h, after which the cells have been washed and treated with the senolytic drugs K5 10 µM for another 96 h. The treatment with the senolytic compounds has been renewed at 48 h. Cell mortality and vitality curves after treatment with K5 (10 μM, orange) or Vehicle (DMSO, grey) were monitored using the Incucyte live-cell Analysis system (Sartorius, Goettingen, Germany). The estimated Senolytic index (SI) was calculated as the ratio between the EC50 in proliferating cells and the EC50 in senescent cells, extrapolated using GraphPad Prism 10 software.

MCF7 cells [2] = assay: Western blot of MCF7 protein expression after Tamoxifen treatment; type: cell-based, Homo sapiens; conditions: MCF7, TAM 10 μM + K5 10 μM, compared to DMSO
Experimental: WB was performed according to standard procedures and detected by UVITEC (Eppendorf). Densitometric analysis was performed with NIH ImageJ 1.8 software.
Western Blot. WB was performed according to standard procedures. Total protein extract was performed as in (Aiello et al. 2016). Western blot assay used 10 µg of protein extract and proteins solved by SDS-PAGE. […] Densitometric analysis was performed with NIH Image J 1.8 software (National Institutes of Health, Bethesda, MD, USA), and specific values were normalized to loading control (β-Actin).

WI38 cells = assay: Dose-response curves on proliferating and replicative senescent WI38 (Trypan blue cell count); type: cell-based; conditions: for EC50: Homo sapiens, WI-38
Source text: as §1
Cell culture and treatment. IMR90 cells (Homo sapiens, fetal lung, fibroblast) and WI38 cells (Homo sapiens, fetal lung, fibroblast) were purchased from ECACC-Merck (Merck, Darmstadt, Germany) and cultured in MEM medium (Euroclone, Milano, Italy) supplemented with 1% L-Glutamine (Euroclone, Milano, Italy), 1% Penicillin-Streptomycin (Euroclone, Milano, Italy), and 10% Fetal Bovine Serum (FBS, Euroclone, Milano, Italy), at 37°C, 5% CO2. IMR90 cells with a population doubling (PD) from PD15 to PD23 were used; cells were considered incrementally senescent from passage PD19 to passage PD23. WI38 cells were used from PD26 to PD53. Cells were considered incrementally senescent from passage PD49 to passage PD53. For the compounds in vitro screening, IMR90 cells with passages from PD15 to PD23 were tested at increasing concentrations of 0.5 μM, 1 μM, 10 μM, and 25 μM over 24 and 48 h to evaluate the compounds' efficacy and cytotoxicity compared to the Vehicle (DMSO ≤ 0.1%). Cells were counted manually, in triplicate, using Trypan blue reagent (Euroclone) and disposable Bürker chambers. […] K5 dose-response proliferation curves were performed with compound K5 (Molport, SIA, Riga, Latvia) in concentrations 0.1, 0.5, 1, 5, 10, 50, 100, and 200 μM for 48 h. Cells were counted using a Trypan blue reagent and EVAplus cell counter. The EC50s were calculated by analyzing the data using GraphPad Prism 10 software.
as §2

Cc1ccccc1-n1c(=O)n(Cc2ccccc2)c(=O)c2[nH]cnc21 [Compound K5, 1-benzyl-3-(2-methylphenyl)-7H-purine-2,6-dione] was tested, and the EC50 (MCF7 cells [1]; Homo sapiens, MCF7, 96 h, MCF7, K5 96 h, read-out: EC50 proliferating cells) was 167 µM, the EC50 (MCF7 cells [1]; Homo sapiens, MCF7, 96 h, MCF7, TAM 10 μM 96 h, then K5 96 h, read-out: EC50 senescent cells) was 24.4 µM and the “Senolytic evidence (no, partly/yes)” value (MCF7 cells [1]; MCF7, 4-hydroxy-tamoxifen) was “Yes”. The EC50 (MCF7 cells [1]; MCF7, K5 96 h, read-out: EC50 proliferating cells) was 167 µM, the EC50 (MCF7 cells [1]; MCF7, TAM 10 μM 96 h, then K5 96 h, read-out: EC50 senescent cells) was 24 µM and the “Senolytic index (estimated)” value (MCF7 cells [1]; MCF7, SI = EC50 in proliferating cells/EC50 senescent cells) was 7. For the same molecule, the “Caspase 3 protein level” value (MCF7 cells [2]) was “further increased”, the EC50 (WI38 cells; WI38, Replicative/passages, read-out: EC50 senescent cells) was 0.65 µM and the EC50 (WI38 cells; WI38, read-out: EC50 proliferating cells) was > 500 µM. For the same molecule, the “Senolytic evidence (no, partly/yes)” value (WI38 cells; WI38, Replicative/passages) was “Yes”, the “Senolytic index (estimated)” value (WI38 cells; WI38, SI = EC50 in proliferating cells/EC50 senescent cells) was > 770 and the “toxicity in proliferating cells” value (WI38 cells; proliferating WI38 (PD29), 100 nM to 200 μM, 48 h) was “no evident toxicity”.
